# Test results published in US8445509B2, “Fused heterocyclic derivatives and use thereof” (Takeda Pharmaceutical Company Limited, priority 2008, dated 2013).
# Assays:
# [1] = system: Human umbilical vein-derived vascular endothelial cells (HUVEC); test: Vascular endothelial cell proliferation inhibitory test (VEGF-stimulated HUVEC); assay type: cell-based; settings: 120 h, 5 days of culture with VEGF
# Experimental: Human umbilical vein-derived vascular endothelial cells (HUVEC purchased from KURABO […] LTD.) were cultured in an incubator at 37° C., 5% carbon dioxide in a vascular endothelial cell medium (Invitrogen) containing 3% bovine fetal serum and 2.5 ng/mL basic fibroblast growth factor. To be specific, HUVEC was suspended in a vascular endothelial cell medium containing the aforementioned 3% bovine fetal serum and plated on a 96 well flat bottom plate by 50 μL (3000 cells) each well. After culture overnight, various concentrations of the test substance and 120 ng/mL of vascular endothelial growth factor (VEGF) were dissolved in a vascular endothelial cell medium containing 3% bovine fetal serum and added to each well by 50 μL. After 5 days of culture, a Cell counting kit-8 reagent (DOJINDO LABORATORIES) was added to each well by 10 μL, and the mixture was reacted in an incubator at 37° C., 5% carbon dioxide for 2-3 hr. The absorbance at 450 nm was measured by a microtiter plate reader and the cell proliferation inhibitory activity was determined. Using the absorbance with addition of a test substance at each concentration and based on the nonlinear least-squares analysis using a logistic curve of SAS system NLIN procedure, the concentration of the test substance (IC50 value) necessary for showing 50% of the value obtained without addition of the test substance was calculated.
# [2] = target: T1, FLT3 intracellular domain protein (Homo sapiens, UniProt P36888); test: Fms Like Tyrosine Kinase 3 (FLT3) kinase inhibitory activity (AlphaScreen); assay type: biochemical; settings: for inhibition at 1 µM: 1 μM test compound, read-out: inhibitory rate (%) at 1 μM
# T1 construct: 7.5 ng/ml of FLT3 intracellular domain protein (Millipore); purchased Millipore
# T1 sequence (P36888 564-993 limits assumed): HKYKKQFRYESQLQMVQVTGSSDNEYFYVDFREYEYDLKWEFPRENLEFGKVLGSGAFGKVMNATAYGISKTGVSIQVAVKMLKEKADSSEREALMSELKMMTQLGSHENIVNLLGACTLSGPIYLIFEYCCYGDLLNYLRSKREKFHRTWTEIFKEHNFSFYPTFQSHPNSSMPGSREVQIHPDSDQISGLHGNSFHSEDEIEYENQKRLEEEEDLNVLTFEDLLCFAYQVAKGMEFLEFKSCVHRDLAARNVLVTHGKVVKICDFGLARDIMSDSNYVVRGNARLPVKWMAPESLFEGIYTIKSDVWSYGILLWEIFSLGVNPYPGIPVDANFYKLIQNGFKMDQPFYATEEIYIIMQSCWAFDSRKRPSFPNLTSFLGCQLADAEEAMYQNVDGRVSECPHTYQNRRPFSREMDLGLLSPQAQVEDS
# Experimental: A test compound dissolved in dimethyl sulfoxide (DMSO) was diluted with a buffer (50 mM Tris-HCl (pH 7.5), 5 mM MgCl2, 5 mM MnCl2, 2 mM dithiothreitol, 0.01% Tween-20). To this compound solution (5 μL) was added a buffer (10 μL) containing 7.5 ng/ml of FLT3 intracellular domain protein (Millipore) and 250 ng/mL of biotin labeled polypeptide biotinyl-poly-Glu:Tyr (4:1) (CIS bio International). At 5 min after mixing kinase enzyme and the compound and biotin labeled polypeptide, to the obtained mixture was added a buffer (10 μL) containing ATP (5 μM), the mixture was allowed to react at 25° C. for 10 min and the reaction was quenched with 25 μL of a stop solution (100 mM EDTA disodium salt, 62.5 mM HEPES buffer (pH 7.4), 250 mM NaCl, 0.1% bovine serum albumin, 10 μg/mL AlphaScreen assay streptavidin donor beads (Streptavidin Donor Beads: PerkinElmer), 10 μg/mL AlphaScreen assay anti-phosphotyrosine recognition antibody Y-100 binding acceptor beads (Anti-phosphotyrosine (P-Tyr-100) Acceptor beads: PerkinElmer)). The reaction solution was allowed to stand at 25° C. for 16 hrs, and the wells were counted using a plate reader (Envision™ (PerkinElmer)). The kinase inhibitory rate (%) of the test compound was calculated by the following formula: Inhibitory rate (%)=(1−(count of test compound−blank)÷(control−blank))×100
# (§1) The count of the solution reacted without addition of the compound was used as a “control”, and the count of the solution without the compound and ATP was used as a “blank”.
# [3] = target: T2, Tie2 intracellular domain protein (Homo sapiens, UniProt Q02763); test: TIE2 kinase inhibitory activity (AlphaScreen); assay type: biochemical
# T2 construct: 50 ng/mL of Tie2 intracellular domain protein (Millipore); purchased Millipore
# T2 sequence (Q02763 770-1124 limits assumed): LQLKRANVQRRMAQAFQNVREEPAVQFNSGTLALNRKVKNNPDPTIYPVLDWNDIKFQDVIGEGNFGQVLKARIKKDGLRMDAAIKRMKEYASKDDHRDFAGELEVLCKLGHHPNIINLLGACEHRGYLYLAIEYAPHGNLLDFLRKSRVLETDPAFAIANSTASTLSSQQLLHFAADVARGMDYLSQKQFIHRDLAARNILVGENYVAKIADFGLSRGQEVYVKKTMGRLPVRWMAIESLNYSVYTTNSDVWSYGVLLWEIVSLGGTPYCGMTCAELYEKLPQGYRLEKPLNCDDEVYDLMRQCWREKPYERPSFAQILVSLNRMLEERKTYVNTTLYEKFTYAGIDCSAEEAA
# Experimental: A test compound dissolved in dimethyl sulfoxide (DMSO) was diluted with a buffer (50 mM Tris-HCl (pH 7.5), 5 mM MgCl2, 5 mM MnCl2, 2 mM dithiothreitol, 0.01% Tween-20). A buffer (10 μL) containing 50 ng/mL of Tie2 intracellular domain protein (Millipore) and 250 ng/ml, of biotin labeled polypeptide biotinyl-poly-Glu:Tyr (4:1) (CIS bio International) was added to the compound solution (5 μL). At 5 min from the mixing of the kinase enzyme, the compound and the biotin labeled polypeptide, a buffer (10 μL) containing 5 μM ATP was added, and the mixture was reacted at 25° C. for 10 min. The reaction was quenched by the addition of 25 μL of a stop solution (100 mM EDTA disodium salt, 62.5 mM HEPES buffer (pH 7.4), 250 mM NaCl, 0.1% bovine serum albumin, 10 μg/ml AlphaScreen assay streptavidin donor beads (Streptavidin Donor beads: PerkinElmer), 10 μg/ml, AlphaScreen assay anti-phosphotyrosine recognition antibody PT-66 binding acceptor beads (Anti-phosphotyrosine (PT-66) Acceptor beads: PerkinElmer)). The reaction solution was allowed to stand at 25° C. for 16 hrs, and the […] were counted using a plate reader (Fusion™ (PerkinElmer)). The kinase inhibitory rate (%) of the test compound was calculated by the following formula: Inhibitory rate (%)=(1−(count of test compound−blank)÷(control−blank))×100
# as §1
Compound,IC50 [2],IC50 [3],inhibition at 1 µM [2],"inhibition at 1 µM ([3]; 1 μM test compound, read-out: inhibitory rate (%) at 1 μM)",IC50 [1]
"O=C(Nc1ccc(Oc2ccc3nc(NC(=O)C4CC4)cn3c2)c(F)c1)c1cccn(-c2ccc(F)cc2)c1=O [Example 10, N-[4-({2-[(cyclopropylcarbonyl)amino]imidazo[1,2-a]pyridin-6-yl}oxy)-3-fluorophenyl]-1-(4-fluorophenyl)-2-oxo-1,2-dihydropyridine-3-carboxamide]",≤ 1000 nM,≤ 1000 nM,≥ 50%,–,≤ 2000 nM
"CC1CCN(C(=O)Nc2ccc(Oc3ccc4nc(NC(=O)C5CC5)cn4c3)c(F)c2)C(=O)N1c1ccc(F)cc1 (stereo not shown) [Example 80, N-[4-({2-[(cyclopropylcarbonyl)amino]imidazo[1,2-a]pyridin-6-yl}oxy)-3-fluorophenyl]-3-(4-fluorophenyl)-4-methyl-2-oxotetrahydropyrimidine-1(2H)-carboxamide]",≤ 1000 nM,≤ 1000 nM,–,–,≤ 2000 nM
"O=C(Nc1cn2cc(Oc3ccc(NC(=O)N4CCN(c5ccc(F)cc5)C4=O)cc3F)ccc2n1)C1CC1 [Example 53, N-[4-({2-[(cyclopropylcarbonyl)amino]imidazo[1,2-a]pyridin-6-yl}oxy)-3-sfluorophenyl]-3-(4-fluorophenyl)-2-oxoimidazolidine-1-carboxamide]",≤ 1000 nM,≤ 1000 nM,≥ 50%,≥ 50%,≤ 2000 nM
"Cc1ccc(C(=O)Nc2ccc(Oc3ccc4nc(NC(=O)C5CC5)cn4c3)c(F)c2)[n+]([O-])c1-c1cccc(F)c1 [Example 93, N-[4-({2-[(cyclopropylcarbonyl)amino]imidazo[1,2-a]pyridin-6-yl}oxy)-3-fluorophenyl]-6-(3-fluorophenyl)-5-methylpyridine-2-carboxamide 1-oxide]",≤ 1000 nM,≤ 1000 nM,–,–,≤ 2000 nM
"Cc1ccc(C(=O)Nc2ccc(Oc3ccc4nc(NC(=O)C5CC5)cn4c3)c(F)c2)c(=O)n1-c1ccc(F)cc1.Cl [Example 32, N-[4-({2-[(cyclopropylcarbonyl)amino]imidazo[1,2-a]pyridin-6-yl}oxy)-3-fluorophenyl]-1-(4-fluorophenyl)-6-methyl-2-oxo-1,2-dihydropyridine-3-carboxamide hydrochloride]",–,–,–,–,≤ 2000 nM

# Further lines, with some results ahead:
IC50 [2],IC50 [3],inhibition at 1 µM [2],"inhibition at 1 µM ([3]; 1 μM test compound, read-out: inhibitory rate (%) at 1 μM)",Compound,IC50 [1]
≤ 1000 nM,≤ 1000 nM,–,–,"Cc1ccc(C(=O)Nc2ccc(Oc3ccc4nc(NC(=O)C5CC5)cn4c3)cn2)c(=O)n1-c1ccc(F)cc1 [Example 60, N-[5-({2-[(cyclopropylcarbonyl)amino]imidazo[1,2-a]pyridin-6-yl}oxy)pyridin-2-yl]-1-(4-fluorophenyl)-6-methyl-2-oxo-1,2-dihydropyridine-3-carboxamide]",≤ 2000 nM
≤ 1000 nM,≤ 1000 nM,–,–,"Cc1ccc(C(=O)Nc2ccc(Oc3ccc4nc(NC(=O)C5CC5)cn4c3)c(F)c2)c(=O)n1-c1cccc(F)c1 [Example 75, N-[4-({2-[(cyclopropylcarbonyl)amino]imidazo[1,2-a]pyridin-6-yl}oxy)-3-fluorophenyl]-1-(3-fluorophenyl)-6-methyl-2-oxo-1,2-dihydropyridine-3-carboxamide]",≤ 2000 nM
≤ 1000 nM,≤ 1000 nM,–,–,"Cc1ccc(C(=O)Nc2ccc(Oc3ccc4nc(NC(=O)C5CC5)cn4c3)cc2F)[n+]([O-])c1-c1ccc(F)cc1 [Example 84, N-[4-({2-[(cyclopropylcarbonyl)amino]imidazo[1,2-a]pyridin-6-yl}oxy)-2-fluorophenyl]-6-(4-fluorophenyl)-5-methylpyridine-2-carboxamide 1-oxide]",≤ 2000 nM
≤ 1000 nM,≤ 1000 nM,–,–,"Cc1ccc(C(=O)Nc2ccc(Oc3ccc4nc(NC(=O)C5CC5)cn4c3)cc2)[n+]([O-])c1-c1ccc(F)cc1 [Example 72, N-[4-({2-[(cyclopropylcarbonyl)amino]imidazo[1,2-a]pyridin-6-yl}oxy)phenyl]-6-(4-fluorophenyl)-5-methylpyridine-2-carboxamide 1-oxide]",≤ 2000 nM
